Test results: patent publication US9737075B2, “Synergistic benzoxaborole-containing anti-fungicidal composition” (The Penn State Research Foundation, priority 2015, dated 2017)
≈ marks a conversion by molar mass, not a printed value. Read-outs that look alike come from different tables or passages of the source.

Assays:
Format in all cases: cell-based
Aspergillus niger = test: Broth microdilution MIC of individual antifungals; conditions: for MIC: read-out: Independent MIC
Botrytis cinerea 10-1728 = test: Broth microdilution MIC of individual antifungals; conditions: Botrytis cinerea 10-1728, individual antifungal, 25% PDB, about 25° C., 72 hours, range over N independent triplicate studies; for MIC: 101728, read-out: Independent MIC
Magnaporthe grisea = test: microbe, parasite or virus in culture; conditions: for Independent MIC: Magnaporthe grisea, individual antifungal, 25% PDB, about 25° C., 72 hours, range over N independent triplicate studies; for MIC: Pyricularia oryzae, 72 h, read-out: Independent MIC
Alternaria solani = test: Broth microdilution MIC of individual antifungals; conditions: individual antifungal, 25% PDB, about 25° C., 72 hours, range over N independent triplicate studies; for MIC: read-out: Independent MIC
Aureobasidium pullulans = test: Broth microdilution MIC of individual antifungals; conditions: read-out: Independent MIC
Aspergillus fumigatus = test: Broth microdilution MIC of individual antifungals; conditions: individual antifungal, 25% PDB, about 25° C., 72 hours, range over N independent triplicate studies; for MIC: read-out: Independent MIC
Sclerotinia homoeocarpa = test: Broth microdilution MIC of individual antifungals; conditions: Sclerotinia homoeocarpa, individual antifungal, 25% PDB, about 25° C., 72 hours, range over N independent triplicate studies; for MIC: Clarireedia homoeocarpa, read-out: Independent MIC
Botrytis cinerea B17 = test: Broth microdilution MIC of individual antifungals; conditions: Botrytis cinerea B17; individual antifungal, 25% PDB, about 25° C., 72 hours; range over N independent triplicate studies; read-out: Independent MIC
Stachybotrys chartarum = test: Broth microdilution MIC of individual antifungals; conditions: individual antifungal, 25% PDB, about 25° C., 72 hours, range over N independent triplicate studies, read-out: Independent MIC
Rhizopus sp. = test: Broth microdilution MIC of individual antifungals; conditions: for MIC: Rhizopus, 72 h, read-out: Independent MIC
Mucor sp. = test: Broth microdilution MIC of individual antifungals; conditions: individual antifungal, 25% PDB, about 25° C., 72 hours, range over N independent triplicate studies
Phytophthora pini = test: Broth microdilution MIC of individual antifungals; conditions: individual antifungal, 25% PDB, about 25° C., 72 hours, range over N independent triplicate studies
Aspergillus flavus = test: Broth microdilution MIC of individual antifungals; conditions: individual antifungal, 25% PDB, about 25° C., 72 hours, range over N independent triplicate studies, read-out: Independent MIC
Penicillium chrysogenum = test: Broth microdilution MIC of individual antifungals; conditions: individual antifungal, 25% PDB, about 25° C., 72 hours, range over N independent triplicate studies, read-out: Independent MIC
[1] = tested on: Colletotrichum orbiculare; test: Broth microdilution MIC of individual antifungals; conditions: individual antifungal, 25% PDB, about 25° C., 72 hours, range over N independent triplicate studies; for MIC: read-out: Independent MIC
Fusarium graminearum = test: microbe, parasite or virus in culture; conditions: Fusarium graminearum; for MIC: 72 h, read-out: Independent MIC
[2] = tested on: Mycosphaerella zeae-maydis; test: Broth microdilution MIC of individual antifungals; conditions: Didymella maydis, individual antifungal, 25% PDB, about 25° C., 72 hours, range over N independent triplicate studies
Candida albicans = test: Broth microdilution MIC of individual antifungals; conditions: individual antifungal, 25% PDB, about 25° C., 72 hours, range over N independent triplicate studies, read-out: Independent MIC
Fusarium verticillioides = test: Broth microdilution MIC of individual antifungals; conditions: individual antifungal, 25% PDB, about 25° C., 72 hours, range over N independent triplicate studies, read-out: Independent MIC
[3] = tested on: Fusarium solani f. sp. pisi (MP VI); test: Broth microdilution MIC of individual antifungals; conditions: Fusarium solani f. sp. pisi (MP VI); individual antifungal, 25% PDB, about 25° C., 72 hours; range over N independent triplicate studies; read-out: Independent MIC
[4] = individual antifungal, 25% PDB, about 25° C., 72 hours, range over N independent triplicate studies
[5] = Rhizopus sp., individual antifungal, 25% PDB, about 25° C., 72 hours, range over N independent triplicate studies

Structure (SMILES) | MIC (Alternaria solani) [µg/mL] | MIC (Aspergillus fumigatus) [µg/mL] | MIC (Aspergillus niger; [4]) [µg/mL] | MIC (Sclerotinia homoeocarpa) [µg/mL] | MIC (Botrytis cinerea 10-1728) [µg/mL] | MIC (Mucor sp.) [µg/mL] | MIC (Magnaporthe grisea) [µg/mL] | MIC (Rhizopus sp.; [5]) [µg/mL] | other results
Cn1cc(C(=O)Nc2ccccc2-c2cc(F)c(F)c(F)c2)c(C(F)F)n1 [Fluxapyroxad, fluxapyroxad] |  |  |  |  |  |  |  |  | Independent MIC (Aspergillus niger; [4]): (0.39-0.4) μg/mL; Independent MIC (Botrytis cinerea 10-1728): 6.25 µg/mL; Independent MIC (Magnaporthe grisea): 3.13 µg/mL
CC(C)NC(=O)N1CC(=O)N(c2cc(Cl)cc(Cl)c2)C1=O [Iprodione, ipordione] | 3.12 to 6.25 | 12.5 to 50 | 50 to 100 | 4 to 10 | 15 to 25 | 1.56 to 6.25 | 12.5 (≈ 37.9 µM) |  | MIC (Aureobasidium pullulans; 72 h): 12.5 to 50 µg/mL; MIC (Botrytis cinerea B17): 16 to 20 µg/mL; MIC (Stachybotrys chartarum): 25 to 30 µg/mL; MIC (Rhizopus sp.): 3.12 to 12.5 µg/mL
C[C@H]1O[C@H](O[C@H]2[C@H](O)[C@@H](O)[C@@H](O)[C@H](O)[C@@H]2O)[C@@H](N)C[C@@H]1NC(=N)C(=O)O [Kasugamycin] |  |  |  |  |  |  |  |  | Independent MIC (Alternaria solani): (100-200) μg/mL; Independent MIC (Sclerotinia homoeocarpa): 100 µg/mL; Independent MIC (Botrytis cinerea 10-1728): 200 µg/mL; Independent MIC (Phytophthora pini): 200 µg/mL
CC#Cc1cc(C)nc(Nc2ccccc2)n1 [Mepanipyrim, mepanipyrim] |  | 0.05 to 0.1 | 25 | 0.098 to 0.19 | 50 to 100 |  |  | 50 | MIC (Aspergillus flavus): 0.75 µg/mL; MIC (Penicillium chrysogenum): 0.025 to 0.048 µg/mL
COCC(=O)N(c1c(C)cccc1C)C(C)C(=O)OC (stereo not shown) [Metalaxyl, metalaxyl] |  | 400 | 400 | 128 to 200 |  |  |  | 400 | MIC (Aspergillus flavus): 400 µg/mL; MIC (Botrytis cinerea B17): 50 to 64 µg/mL
CC(C)CC(C)c1sccc1NC(=O)c1cn(C)nc1C(F)(F)F (stereo not shown) [Penthiopyrad, penthiopyrad] |  |  |  |  | 15 to 25 |  | 1.56 (≈ 4.34 µM) |  | MIC (Aspergillus flavus): 100 µg/mL; MIC (Aspergillus niger; 72 h): 0.78 to 1.56 µg/mL; MIC [1]: 50 to 100 µg/mL
CO/C=C(/C(=O)OC)c1ccccc1COc1cccc(C(F)(F)F)n1 [Picoxystrobin, picoxystrobin] |  |  |  |  |  |  |  |  | Independent MIC (Aspergillus fumigatus): (25-50) μg/mL; Independent MIC (Sclerotinia homoeocarpa): 1.56 µg/mL; Independent MIC (Botrytis cinerea 10-1728): (100-200) μg/mL; Independent MIC (Fusarium graminearum; [4]): (200-400) μg/mL; Independent MIC (Mucor sp.): (50-200) μg/mL; Independent MIC (Magnaporthe grisea): (3.13-6.25) μg/mL
C=CCOC1=NS(=O)(=O)c2ccccc21 [Probenazole, probenazole] | 200 |  |  | 50 to 100 | 100 | 200 | 100 (≈ 448 µM) |  | MIC [2]: 200 µg/mL; MIC (Phytophthora pini): 200 µg/mL
CCCOC(=O)NCCCN(C)C [Propamocarb, propamocarb] | 100 to 200 |  |  | 200 | 100 to 400 | 200 to 400 |  |  | 
CCCC1COC(Cn2cncn2)(c2ccc(Cl)cc2Cl)O1 (stereo not shown) [Propiconazole, propiconazole] | 100 to 160 | 2.5 to 6.25 | 12.5 | 0.5 to 1 | 1.25 to 3.12 | 50 | 1.56 (≈ 4.56 µM) | 12.5 to 24 | MIC [2]: 3 to 6.25 µg/mL; MIC (Aureobasidium pullulans; 72 h): 1.56 to 6 µg/mL; MIC (Aspergillus flavus): 6.25 to 12.5 µg/mL; MIC (Botrytis cinerea B17): 1 to 2 µg/mL; MIC (Candida albicans): 100 to 200 µg/mL; MIC (Fusarium graminearum): 12.5 to 25 µg/mL (≈ 36.5 to 73.1 µM); MIC (Fusarium verticillioides): 0.5 to 2 µg/mL; MIC [3]: 200 µg/mL; MIC (Stachybotrys chartarum): 6.25 to 12.5 µg/mL; Independent MIC (Rhizopus sp.; [5]): 12.5 µg/mL; MIC (Phytophthora pini): 6.25 µg/mL; MIC (Penicillium chrysogenum): 6.25 to 12.5 µg/mL; MIC [1]: 3.12 µg/mL
COC(=O)N(OC)c1ccccc1COc1ccn(-c2ccc(Cl)cc2)n1 [Pyraclostrobin, pyraclostrobin] | 50 to 100 | 20 to 25 | 25 to 50 | 0.5 | 200 | 100 | 0.02 to 0.025 (≈ 0.0516 to 0.0645 µM) | 50 | MIC [2]: 2 to 4 µg/mL; MIC (Aureobasidium pullulans; [4]): 0.188 to 0.78 µg/mL; MIC (Botrytis cinerea B17): 3.75 to 8 µg/mL; MIC (Fusarium graminearum): 200 µg/mL (≈ 516 µM); MIC [3]: 100 to 200 µg/mL; MIC (Stachybotrys chartarum): 1.56 to 4 µg/mL; MIC (Phytophthora pini): 1.56 µg/mL; MIC (Penicillium chrysogenum): 0.1 to 0.4 µg/mL; MIC [1]: 3.12 µg/mL
Fc1ccc(Oc2ccnc3cc(Cl)cc(Cl)c23)cc1 [Quinoxyfen, quinoxyfen] |  |  |  |  | 50 to 100 |  |  | 100 to 200 | 
O=[N+]([O-])c1c(Cl)c(Cl)c(Cl)c(Cl)c1Cl [Quintozene, quintozene] |  |  |  |  |  |  |  |  | Independent MIC (Botrytis cinerea 10-1728): 50 µg/mL; Independent MIC [1]: (25-50) μg/mL
C=CC1(C)OC(=O)N(c2cc(Cl)cc(Cl)c2)C1=O (stereo not shown) [Vinclozolin, vinclozolin] |  | 100 to 200 | 50 to 100 | 4 to 5 | 100 to 400 | 100 to 200 |  | 100 | MIC [2]: 6.25 to 16 µg/mL
CCC(C)(NC(=O)c1cc(Cl)c(C)c(Cl)c1)C(=O)CCl (stereo not shown) [Zoxamide, zoxamide] |  |  |  |  | 0.39 to 1.6 |  |  |  | 
